Where no end group is shown, it is not given here.
Columns and labels:
ZIKV = experiment: Plaque reduction assay in BHK21 cells; assay type: cell-based, Zika virus; conditions: n=3
Protocol: Supplementary Figure 2: Plaque reduction assay to determine ZIKV infection in BHK21 cells. (a) Plaque reduction assay for Z2. ZIKV was incubated with Z2 or Z2-scr in diﬀerent concentrations for 1.5 h. Then the mixture was added to BHK21 cells seeded in 6-well plates. After 1.5 h, the viral inoculum was removed and 2.5 ml DMEM with 2% FBS and 1% low melting-point agarose overlaid the cells. Four to five days later, the cells were fixed with 4% PFA and stained with 1% crystal violet overnight. (b) Plaque reduction curves. Plaques were counted and percentage of plaque reduction was […]

DENV-2 = conditions: 12 h
YFV 17D = conditions: read-out: IC50, inhibition of YFV 17D infection; BHK21 cells
[1] = 100 μg Z2-Cy5 i.v.; male ICR mice
BHK21 cells = conditions: concentration as high as 50 μM, 24 h, 37 °C, CCK8
mouse red blood cells = conditions: concentration as high as 100 μM; 2% mouse RBC, 1 h, 37 °C; A560
in vivo = conditions: SD, rat, iv, 10 mg kg-1
[2] = In vivo fluorescence imaging of distribution in pregnant ICR mice and fetuses
Vero cells = conditions: concentration as high as 50 μM, 24 h, 37 °C, CCK8
[3] = rat, in vivo, iv, 10 mg/kg
[4] = SD rats, n=3, serum
Huh7 cells = conditions: concentration as high as 50 μM, 24 h, 37 °C, CCK8
[5] = Safety of Z2 for pregnant ICR mice and fetuses; assay type: in vivo
ZIKV virions = experiment: Sucrose density gradient assay; conditions: 100 μM peptide in 1% DMSO or 1% Triton X-100, 37 °C 2 h
[6] = system: ZIKV-infected BHK21 cells; assay type: binding, Zika virus; conditions: peer review file
Protocol: Supplementary Figure 4: Binding of Z2-Cy5 to ZIKV-infected BHK21 cells. (a) Immunofluorescence staining assay.
Scale bar = 100 μm. (b) Flow cytometry assay. After the incubation of ZIKV or mock infected BHK21 cells with Z2-Cy5, the cells were washed five times and processed by a BD Accuri C6 Flow Cytometer.
BHK21 cells. As shown in Supplementary Figure 4, E protein (green, stained by anti-E mAb 4G2) and Z2-Cy5 (red) overlapped and colocated together (Supplementary Figure 4A). In the flow cytometry assay (Supplementary Figure 4B), Z2-Cy5 bound with 63.5% […]
ZIKV-infected BHK21 cells.
Supplementary Figure 4: Binding of Z2-Cy5 to ZIKV-infected BHK21 cells. (A) […]
Scale bar = 100 μm. (B) Flow cytometry assay. After the incubation of ZIKV- or mock- […]
The result was added to the revised manuscript: “Similar results were […]
obtained from ZIKV-infected BHK21cells (Supplementary Figure 4).”
The related methods were added in the revised manuscript:
“To test the binding of Z2 to ZIKV- infected BHK21 cells, BHK21 cells seeded in cover slips were ZIKV or mock infected, fixed with 4 % PFA, perforated by 0.2% Triton X-100 and blocked with 3% BSA. The cells were then incubated with anti-E mAb 4G2.
After 5 washes, the cells were incubated with Alexa Fluor 488-labeled donkey anti-mouse antibody and Z2-Cy5 at RT for 1 h. […]

[7] = 10-120 mg kg−1 i.v., before and 4 h, 1, 3, 5 days after third injection, P>0.05

MAVLGDTAWDFGSVGGALNSLGKGIHQIFGAAF [Z2] [listing 1 of 2 here]
IC50 (ZIKV): 2.61 ± 0.46 µM | IC50 (DENV-2): ~4 µM | IC50 (YFV 17D): ~5 µM

MAVLGDTAWDFGSVGGALNSLGKGIHQIFGAAF [Z2] [listing 2 of 2 here]
distribution to genital organs (testis, seminal vesicle, epididymis) [1]: could distribute to the genital organs | cytotoxic effect (BHK21 cells): no cytotoxic effect | cytotoxic effect on red blood cells (hemoglobin release) (mouse red blood cells): no cytotoxic effect | half-life (in vivo): 2.77 h | penetration of the placental barrier ([2]; injected intravenously or intraperitoneally, pregnant ICR mice): can penetrate through the placental barrier | cytotoxic effect (Vero cells): no cytotoxic effect | AUC(0-inf) [3]: 557 ng·h/mL | AUC(0-t) [3]: 548 ng·h/mL | Tmax [3]: 0.25 h | Kel, elimination constant ([4]; 10 mg kg-1 i.v. tail vein, LC-MS/MS, noncompartmental): 0.250 h⁻¹ | Cmax ([4]; 10 mg kg-1 i.v., concentration data dose-normalized): 754.6 ng/mL | cytotoxic effect (Huh7 cells): no cytotoxic effect | average litter size of the offspring ([5]; 10 mg kg−1 i.v. daily for 3 days, n=5, PBS 10.4±1.5): 10.2±1.6 | average litter size of the offspring ([5]; 20 mg kg−1 i.v. daily for 3 days, n=6): 10.5±2.0 | average litter size of the offspring ([5]; 40 mg kg−1 i.v. daily for 3 days, n=5): 10.4±2.1 | average litter size of the offspring ([5]; 80 mg kg−1 i.v. daily for 3 days, n=5): 10.6±1.1 | average litter size of the offspring ([5]; 120 mg kg−1 i.v. daily for 3 days, n=5): 10.8±2.6 | safe dose relative to dose protecting against ZIKV in vivo ([5]; 120 mg kg−1 versus 10 mg kg−1): 11 fold | serum ALT versus PBS group [5, 7]: no significant difference | serum creatinine versus PBS group [5, 7]: no significant difference | histopathology (H&E) of livers, kidneys, brains, spleens of mothers and pups ([5]; 10-120 mg kg−1 i.v., versus PBS): no pathological abnormality | body weight changes of mothers and pups ([5]; i.v. 10, 20, 40, 80, 120 mg kg−1 daily for 3 days versus PBS): almost the same among the six groups

Triton X-100
fraction with peak of viral genomic RNA (ZIKV virions; RT-qPCR): 1 fraction No. | fraction with peak of E protein (ZIKV virions; western blot): 7 fraction No.

Z2-Cy5: Z2 labeled with Cy5 (MAVLGDTAWDFGSVGGALNSLGKGIHQIFGAAF; also: Cy5 label, site not given here)
average radiant efficiency in uteruses versus PBS ([2]; 100 μg i.v., 1 h, P=0.0148): significantly higher | average radiant efficiency in liver versus PBS ([2]; 100 μg i.v., 1 h, P=0.0275): significantly higher | average radiant efficiency in bladder versus PBS ([2]; 100 μg i.v., 1 h, P=0.0426): significantly higher | average radiant efficiency in fetuses versus PBS ([2]; 100 μg i.v., 1 h, n=9 fetuses, P<0.0001): significantly higher | ZIKV-infected BHK21 cells bound by Z2-Cy5 (flow cytometry) [6]: 63.5%
